The source made the active and inactive calls. No cut-off for these calls is given here.
Experiments:
[1] = test system: T98G; test: Cytotoxicity against human T98G cells assessed as inhibition of cell growth at 20 uM after 5 days; type: cell-based; details: 120 h, time 5 day
[2] = Induction of apoptosis in human GSC-3 cells assessed as early apoptotic cells at 20 uM incubated for 36 hrs by Annexin V-FITC/PI staining based flow cytometric analysis (reference value: 6.99%); type: functional
[3] = Induction of apoptosis in human GSC-3 cells assessed as necrotic cells at 10 uM incubated for 36 hrs by Annexin V-FITC/PI staining based flow cytometric analysis (reference value: 1.42%); type: functional
[4] = test system: HUVEC; test: Cytotoxicity against HUVEC assessed as reduction in cell viability after 72 hrs by MTS assay; type: cell-based, Homo sapiens; details: Homo sapiens, HUVEC
[5] = Induction of apoptosis in human GSC-3 cells assessed as necrotic cells at 7.5 uM incubated for 36 hrs by Annexin V-FITC/PI staining based flow cytometric analysis (reference value: 1.42%); type: functional
[6] = test system: GSC-3; test: Inhibition of colony formation in human GSC-3 cells assessed as decrease in number of tumor spheres at 15 uM after 2 weeks by crystal violet staining based assay; type: functional, cell-based
[7] = test system: GSC-3; test: Inhibition of colony formation in human GSC-3 cells assessed as tumor spheres damage at 15 uM after 2 weeks by crystal violet staining based assay; type: functional, cell-based
[8] = test system: T98G; test: Cytotoxicity against human T98G assessed as reduction in cell viability after 72 hrs by MTS assay; type: cell-based; details: Homo sapiens, T98G
[9] = test system: GSC-3; test: Induction of apoptosis in human GSC-3 cells assessed as appearance of round and detached cells at 20 uM; type: functional, cell-based
[10] = test system: GSC-3; test: Induction of apoptosis in human GSC-3 cells assessed as cell shrank at 20 uM; type: functional, cell-based
[11] = Induction of apoptosis in human GSC-3 cells assessed as viable cells at 10 uM incubated for 36 hrs by Annexin V-FITC/PI staining based flow cytometric analysis (reference value: 83.8%); type: functional; details: read-out: Activity
[12] = test system: GSC-18; test: Induction of apoptosis in human GSC-18 cells assessed as cell shrank at 20 uM; type: functional, cell-based
[13] = Cytotoxicity against human GSC18 cells assessed as reduction in cell viability after 72 hrs by MTS assay; type: functional, cell-based, GSC-18; details: GSC18, 72 h
[14] = test system: GSC-3; test: Induction of apoptosis in human GSC-3 cells assessed as increase in cleaved caspase 3 at 15 uM after 48 hrs by immunofluorescence assay; type: functional, cell-based
[15] = test system: GSC-3; test: Antiproliferative activity against human GSC-3 cells assessed as inhibition of cell growth at 15 uM after 48 hrs by BrdU incorporation assay; type: functional, cell-based
[16] = test system: U-87 MG; test: Cytotoxicity against human U-87 MG cells assessed as inhibition of cell growth at 20 uM after 5 days; type: cell-based; details: u-87mg atcc, 120 h, time 5 day
[17] = Induction of apoptosis in human GSC-3 cells assessed as early apoptotic cells at 10 uM incubated for 36 hrs by Annexin V-FITC/PI staining based flow cytometric analysis (reference value: 6.99%); type: functional
[18] = test system: U-87 MG; test: Cytotoxicity against human U-87 MG cells assessed as reduction in cell viability after 72 hrs by MTS assay; type: cell-based, U-87MG ATCC; details: Homo sapiens, U-87 MG
[19] = test system: HEK-293T; test: Cytotoxicity against human 293T cells assessed as inhibition of cell growth at 20 uM after 5 days; type: cell-based; details: 120 h, time 5 day
[20] = test system: GSC-3; test: Cytotoxicity against human GSC3 cells assessed as inhibition of cell growth at 20 uM after 5 days; type: functional, cell-based; details: time 5.0 day
[21] = test system: GSC-18; test: Induction of apoptosis in human GSC-18 cells assessed as increase in cleaved caspase 3 at 15 uM after 48 hrs by immunofluorescence assay; type: functional, cell-based
[22] = Induction of apoptosis in human GSC-3 cells assessed as viable cells at 7.5 uM incubated for 36 hrs by Annexin V-FITC/PI staining based flow cytometric analysis (reference value: 83.8%); type: functional; details: read-out: Activity
[23] = test system: GSC-3; test: Induction of apoptosis in human GSC-3 cells assessed as accumulation of ROS by measuring increase in NOX1 expression at 15 uM after 48 hrs by transcriptome analysis; type: functional, cell-based
[24] = Induction of apoptosis in human GSC-3 cells assessed as early apoptotic cells at 7.5 uM incubated for 36 hrs by Annexin V-FITC/PI staining based flow cytometric analysis (reference value: 6.99%); type: functional
[25] = test system: GSC-3; test: Induction of apoptosis in human GSC-3 cells assessed as ROS accumulation at 4 to 12 uM after 3 hrs in presence of NAC by DCFH-DA assay; type: functional, cell-based; details: dose 4-12 µM
[26] = test system: GSC-18; test: Induction of apoptosis in human GSC-18 cells assessed as ROS accumulation at 4 to 12 uM after 3 hrs in presence of NAC by DCFH-DA assay; type: functional, cell-based; details: dose 4-12 µM
[27] = test system: GSC-18; test: Inhibition of colony formation in human GSC-18 cells assessed as tumor spheres damage at 15 uM after 2 weeks by crystal violet staining based assay; type: functional, cell-based
[28] = test system: GSC-18; test: Cytotoxicity against human GSC18 cells assessed as inhibition of cell growth at 20 uM after 5 days; type: functional, cell-based; details: time 5.0 day
[29] = Induction of apoptosis in human GSC-3 cells assessed as late apoptotic cells at 7.5 uM incubated for 36 hrs by Annexin V-FITC/PI staining based flow cytometric analysis (reference value: 7.79%); type: functional
[30] = test system: HUVEC; test: Cytotoxicity against HUVEC assessed as inhibition of cell growth at 20 uM after 5 days; type: cell-based; details: human, 120 h, time 5 day
[31] = Cytotoxicity against human GSC3 cells assessed as reduction in cell viability after 72 hrs by MTS assay; type: functional, cell-based; details: GSC-3, 72 h
[32] = Induction of apoptosis in human GSC-3 cells assessed as necrotic cells at 20 uM incubated for 36 hrs by Annexin V-FITC/PI staining based flow cytometric analysis (reference value: 1.42%); type: functional
[33] = test system: GSC-18; test: Antiproliferative activity against human GSC-18 cells assessed as inhibition of cell growth at 15 uM after 48 hrs by BrdU incorporation assay; type: functional, cell-based
[34] = test system: U-87 MG; test: Inhibition of colony formation in human U-87 MG cells assessed as tumor spheres damage at 15 uM by crystal violet staining based assay; type: functional, cell-based; details: U-87MG ATCC
[35] = Induction of apoptosis in human GSC-3 cells assessed as late apoptotic cells at 10 uM incubated for 36 hrs by Annexin V-FITC/PI staining based flow cytometric analysis (reference value: 7.79%); type: functional
[36] = test system: HEK-293T; test: Induction of apoptosis in human 293T cells assessed as accumulation of ROS by measuring increase in NCF1 expression at 15 uM after 48 hrs by transcriptome analysis; type: functional, cell-based
[37] = test system: HEK-293T; test: Cytotoxicity against human 293T cells assessed as reduction in cell viability after 72 hrs by MTS assay; type: cell-based; details: Homo sapiens, HEK-293T
[38] = test system: GSC-18; test: Induction of apoptosis in human GSC-18 cells assessed as appearance of round and detached cells at 20 uM; type: functional, cell-based
[39] = test system: T98G; test: Inhibition of colony formation in human […] cells assessed as decrease in number of tumor spheres at 15 uM by crystal violet staining based assay; type: functional, cell-based
[40] = test system: GSC-18; test: Inhibition of colony formation in human GSC-18 cells assessed as decrease in number of tumor spheres at 15 uM after 2 weeks by crystal violet staining based assay; type: functional, cell-based
[41] = test system: U-87 MG; test: Inhibition of colony formation in human U-87 MG cells assessed as decrease in number of tumor spheres at 15 uM by crystal violet staining based assay; type: functional, cell-based; details: U-87MG ATCC
[42] = test system: GSC-3; test: Induction of apoptosis in human GSC-3 cells assessed as accumulation of ROS by measuring increase in NCF1 expression at 15 uM after 48 hrs by transcriptome analysis; type: functional, cell-based
[43] = test system: GSC-3; test: Induction of apoptosis in human GSC-3 cells assessed as reduction in Bcl-2 protein expression at 7.5 to 20 uM after 48 hrs by Western blotting analysis; type: functional, cell-based; details: dose 7.5-20 µM
[44] = Induction of apoptosis in human GSC-3 cells assessed as viable cells at 20 uM incubated for 36 hrs by Annexin V-FITC/PI staining based flow cytometric analysis (reference value: 83.8%); type: functional; details: read-out: Activity
[45] = test system: HEK-293T; test: Induction of apoptosis in human 293T cells assessed as accumulation of ROS by measuring increase in NOX1 expression at 15 uM after 48 hrs by transcriptome analysis; type: functional, cell-based
[46] = test system: T98G; test: Inhibition of colony formation in human […] cells assessed as tumor spheres damage at 15 uM by crystal violet staining based assay; type: functional, cell-based
[47] = Induction of apoptosis in human GSC-3 cells assessed as late apoptotic cells at 20 uM incubated for 36 hrs by Annexin V-FITC/PI staining based flow cytometric analysis (reference value: 7.79%); type: functional

Question: With CC1=C(CC[C@H](C)CO[C@@H]2O[C@H](CO)[C@@H](O)[C@H](O)[C@H]2O)O[C@H]2C[C@H]3[C@@H]4CC[C@@H]5C[C@@H](O[C@@H]6O[C@H](CO)[C@@H](O[C@@H]7O[C@@H](C)[C@H](O)[C@@H](O)[C@H]7O)[C@H](O)[C@H]6O[C@@H]6O[C@@H](C)[C@H](O)[C@@H](O)[C@H]6O)CC[C@]5(C)[C@H]4CC[C@]3(C)[C@@H]12 as the molecule, how does the Activity [1] read?
Answer: Non-Toxic

Question: And the Activity [2]?
Answer: 53.3%

Question: What about the Activity [3] of the same molecule?
Answer: 0.69%

Question: What about the IC50 [4] of the same molecule?
Answer: > 100 µM

Question: And the Activity [5]?
Answer: 1.01%

Question: What about the inhibition [6] of the same molecule?
Answer: Active

Question: And the Activity [7]?
Answer: Active

Question: And the IC50 [8]?
Answer: > 100 µM

Question: And the Activity [9]?
Answer: Active

Question: What about the Activity [10] of the same molecule?
Answer: Active

Question: And the viability at 10 µM [11]?
Answer: 60.4%

Question: And the Activity [12]?
Answer: Active

Question: And the IC50 [13]?
Answer: 6.6 µM

Question: What about the Activity [14] of the same molecule?
Answer: Active

Question: And the Activity [15]?
Answer: Active

Question: And the Activity [16]?
Answer: Non-Toxic

Question: What about the Activity [17] of the same molecule?
Answer: 34.3%

Question: What about the IC50 [18] of the same molecule?
Answer: > 100 µM

Question: And the Activity [19]?
Answer: Non-Toxic

Question: And the Activity [20]?
Answer: Active

Question: What about the Activity [21] of the same molecule?
Answer: Active

Question: And the viability at 7.5 µM [22]?
Answer: 74.1%

Question: What about the Activity [23] of the same molecule?
Answer: Active

Question: What about the Activity [24] of the same molecule?
Answer: 19.4%

Question: And the Activity [25]?
Answer: inactive

Question: What about the Activity [26] of the same molecule?
Answer: inactive

Question: What about the Activity [27] of the same molecule?
Answer: Active

Question: What about the Activity [28] of the same molecule?
Answer: Active

Question: And the Activity [29]?
Answer: 5.46%

Question: What about the Activity [30] of the same molecule?
Answer: Non-Toxic

Question: What about the IC50 [31] of the same molecule?
Answer: 7 µM

Question: What about the Activity [32] of the same molecule?
Answer: 0.56%

Question: And the Activity [33]?
Answer: Active

Question: And the Activity [34]?
Answer: Active

Question: What about the Activity [35] of the same molecule?
Answer: 4.67%

Question: What about the Activity [36] of the same molecule?
Answer: inactive

Question: What about the IC50 [37] of the same molecule?
Answer: > 100 µM

Question: And the Activity [38]?
Answer: Active

Question: And the inhibition [39]?
Answer: Active

Question: What about the inhibition [40] of the same molecule?
Answer: Active

Question: And the Activity [41]?
Answer: Active

Question: What about the Activity [42] of the same molecule?
Answer: Active

Question: What about the Activity [43] of the same molecule?
Answer: Active

Question: And the viability at 20 µM [44]?
Answer: 41.1%

Question: And the Activity [45]?
Answer: inactive

Question: And the inhibition [46]?
Answer: Active

Question: And the Activity [47]?
Answer: 5.03%

From ChEMBL document CHEMBL4732125, “Structures/cytotoxicity/selectivity relationship of natural steroidal saponins against GSCs and primary mechanism of tribulosaponin A” (Eur J Med Chem, 2021)
